In patent US20250170246A1 (priority 2022, published 2025):
“Also recorded” adds a separate entry of the source.

Legend:
[1] = ultimately excreted in expired CO2 and via urine; cited from earlier work
[2] = multiple human clinical trials; cited from earlier work
SARS CoV-2 (WA1 strain) [3] = test: SARS CoV-2-infected human precision-cut lung slices, IL-8 in culture supernatants; assay type: cell-based; settings: 100 μM CDP-choline added daily, 4×10^5 TCID50 SARS CoV-2 WA1, 2 and 3 dpi, vs. saline
From the text: CDP-choline reduces SARS CoV-2-induced inflammation in vitro.

SARS CoV-2 (WA1 strain) [4] = assay type: in vivo, K18-hACE2-Tg mice
influenza = test: Antiviral effect against influenza
[5] = administered parenterally; cited from earlier work
[6] = cited from earlier work
[7] = male K18-hACE2-Tg mice, 5 mg/kg i.p. daily, 4 dpi, relative to infected saline-treated mice
[8] = male K18-hACE2-Tg mice, 10^5 TCID50 SARS CoV-2 WA1, 5 mg/kg i.p. daily 1-3 dpi, read at 4 dpi

## C[N+](C)(C)CCOP(=O)(O)OP(=O)(O)OC[C@H]1O[C@@H](n2ccc(N)nc2=O)C(O)C1O (stereo partly shown) [CDP-choline, Cytidine diphosphate-choline]
[1]
  metabolism of CDP-choline not incorporated into phospholipids: rapidly metabolized into cytidine and choline
[2]
  safety in human clinical trials: safe
SARS CoV-2 (WA1 strain) [3]
  production of IL-8 by SARS CoV-2-infected human precision-cut lung slices: reduced production; also recorded: significantly reduced; also recorded: attenuated
SARS CoV-2 (WA1 strain) [4]; CoV-2-infected male K18-hACE2-Tg mice
  reduction of whole lung ccl-3/mip-1a gene expression: > 5 fold
SARS CoV-2 (WA1 strain) [4]; [7]
  reduction of whole lung il-6 gene expression: > 5 fold
  reduction of whole lung kc/cxcl-1 gene expression: > 5 fold
SARS CoV-2 (WA1 strain) [4]; male K18-hACE2-Tg mice, 5 mg/kg i.p. daily, 4 dpi, vs. saline, 5 mg/kg
  SARS CoV-2 replication in the lungs (in words): significantly reduces; also recorded: significantly decreased
SARS CoV-2 (WA1 strain) [4]; [8]
  SARS CoV-2-induced bradycardia (heart rate): prevents development; also recorded: completely prevented; also recorded: attenuated
  SARS CoV-2-induced hypoxemia (carotid arterial % O2 saturation, SaO2): prevents development; also recorded: completely prevented; also recorded: reversed
SARS CoV-2 (WA1 strain) [4]; male K18-hACE2-Tg mice, daily post-infection CDP-choline
  reduction of viral replication: 0.5 logs
influenza
  antiviral effect against influenza: no such antiviral effect
[5]
  bioavailability: excellent
[6]
  aqueous solubility: high
